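Cultured in 96-well plates, cells were exposed to test compound for 48 hours across five concentrations. TGI: total growth inhibition.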
What was measured:
Experiment in all cases: NCI anticancer screen, dose series, 48 h
786-0 renal = tested on: 786-0 renal
A498 renal = tested on: A498 renal
A549 NSCLC = tested on: A549 NSCLC
ACHN renal = tested on: ACHN renal
BT-549 breast = tested on: BT-549 breast
CAKI-1 renal = tested on: CAKI-1 renal
CCRF-CEM leukemia = tested on: CCRF-CEM leukemia
COLO 205 colon = tested on: COLO 205 colon
DU-145 prostate = tested on: DU-145 prostate
EKVX NSCLC = tested on: EKVX NSCLC
HCT-116 colon = tested on: HCT-116 colon
HCT-15 colon = tested on: HCT-15 colon
HL-60(TB) leukemia = tested on: HL-60(TB) leukemia
HOP-62 NSCLC = tested on: HOP-62 NSCLC
HOP-92 NSCLC = tested on: HOP-92 NSCLC
HS 578T breast = tested on: HS 578T breast
HT29 colon = tested on: HT29 colon
IGROV1 ovarian = tested on: IGROV1 ovarian
K-562 leukemia = tested on: K-562 leukemia
KM12 colon = tested on: KM12 colon
LOX IMVI melanoma = tested on: LOX IMVI melanoma
M14 melanoma = tested on: M14 melanoma
MALME-3M melanoma = tested on: MALME-3M melanoma
MCF7 breast = tested on: MCF7 breast
MDA-MB-231 breast = tested on: MDA-MB-231 breast
MDA-MB-435 = tested on: MDA-MB-435
MDA-N = tested on: MDA-N
MOLT-4 leukemia = tested on: MOLT-4 leukemia
NCI-H226 lung = tested on: NCI-H226 lung
NCI-H23 lung = tested on: NCI-H23 lung
NCI-H460 lung = tested on: NCI-H460 lung
NCI-H522 lung = tested on: NCI-H522 lung
NCI/ADR-RES ovarian = tested on: NCI/ADR-RES ovarian
OVCAR-3 ovarian = tested on: OVCAR-3 ovarian
OVCAR-4 ovarian = tested on: OVCAR-4 ovarian
OVCAR-5 ovarian = tested on: OVCAR-5 ovarian
OVCAR-8 ovarian = tested on: OVCAR-8 ovarian
PC-3 prostate = tested on: PC-3 prostate
RPMI-8226 leukemia = tested on: RPMI-8226 leukemia
RXF 393 renal = tested on: RXF 393 renal
SF-268 CNS = tested on: SF-268 CNS
SF-295 CNS = tested on: SF-295 CNS
SF-539 CNS = tested on: SF-539 CNS
SK-MEL-2 melanoma = tested on: SK-MEL-2 melanoma
SK-MEL-28 melanoma = tested on: SK-MEL-28 melanoma
SK-MEL-5 melanoma = tested on: SK-MEL-5 melanoma
SK-OV-3 ovarian = tested on: SK-OV-3 ovarian
SN12C renal = tested on: SN12C renal
SNB-19 CNS = tested on: SNB-19 CNS
SNB-75 CNS = tested on: SNB-75 CNS
SR leukemia = tested on: SR leukemia
SW-620 colon = tested on: SW-620 colon
T-47D breast = tested on: T-47D breast
TK-10 renal = tested on: TK-10 renal
U251 CNS = tested on: U251 CNS
UACC-257 melanoma = tested on: UACC-257 melanoma
UACC-62 melanoma = tested on: UACC-62 melanoma
UO-31 renal = tested on: UO-31 renal
HCC-2998 colon = tested on: HCC-2998 colon

Measured: TGI

CC(=O)OC1CCC2(C)C(=CCC3C2CCC2(C)C3CC3OC4(CCC(C)CN4)C(C)C32)C1 (stereo unspecified)
not listed: HCC-2998 colon
> 100 µM: all other assays above

ON[C@@H]1C=C[C@H](n2cnc3c(NC4CC4)ncnc32)C1
not listed: HL-60(TB) leukemia
> 100 µM: all other assays above

From PubChem BioAssay (NCI)
